# Assay: Sensory evaluation of sweetness compared with pure (R)-phyllodulcin (Example 4)
# Format: in vivo
# Details: dose 5 mg/kg; panel n=20
# Protocol: Two samples (samples 1 and 2) were prepared by a method according to the invention. Particularly, the leaf material was extracted two times with ethyl acetate (in an amount of 5 times of the weight of the leaf material) and wherein the precipitation was performed with ethanol at 10° C. Furthermore, the solid was washed with ethanol (in an amount of 3 times of the weight of the solid) at 5° C.
# Sample 3 was extracted from leaf material, however, no precipitation was performed.
# The samples were then compared with the pure substance (R)-phyllodulcin with regard to their sensory evaluation.
compound,measurement,value
"COc1ccc([C@H]2Cc3cccc(O)c3C(=O)O2)cc1O [(R)-phyllodulcin, (3R)-8-Hydroxy-3-(3-hydroxy-4-methoxyphenyl)-3,4-dihydro-1 H-isochromen-1-one]",Sweetness,27.0%

# Source: patent publication US20240407385A1, “HIGH PURITY PHYLLODULCIN EXTRACT” (SYMRISE AG, priority 2021, published 2024)
